Source: patent publication US20260207626A1, “SYNTHETIC TRITERPENOIDS AND COMPOSITIONS THEREOF IN WEIGHT MANAGEMENT, SKELETAL MUSCLE FUNCTION, AND APPETITE SUPPRESSION” (The Board of Regents of the University of Texas System, priority 2022, published 2026)
Where “and” joins values, the source holds several entries; their conditions need not be identical. Identical values can stand only once.

Legend:
MCP-1 = assay: LPS-induced MCP-1 ELISA in RAW264.7 macrophages (CDDO-EA batches); type: cell-based, mouse; details: for MCP-1 production: LPS-induced, macrophages in cell culture; for MCP-1 level (ELISA), average: Table 4 (two values); for fold difference in the decrease of MCP-1 production: versus LPS alone
Experimental: Macrophages were pre-treated with 500 nM CDDO-EA #1 or 500 nM CDDO-EA #2, for 1 hour. The microphages were then stimulated with 100 ng/ml of lipopolysaccharide (LPS) for 6 hr. Supernatants were collected from each culture. An enzyme linked immunoassay (ELISA) was performed to detect levels of the pro-inflammatory protein, monocyte chemotactic protein-1 (MCP-1). The macrophages were also treated with LPS alone or with CDDO-EA alone. A control (no treatment) group was also included in the study.
The second batch of CDDO-EA was tested for its biological property of anti-inflammatory activity. As with the first batch of CDDO-EA, this was tested by using the mouse macrophage cell line RAW264.7. RAW264.7 macrophages were pre-treated with 500 nM CDDO-EA for 1 hour then stimulated with 100 ng/ml of lipopolysaccharide (LPS) for 6 hr. Supernatants were collected, and an enzyme linked immunoassay (ELISA) was performed to detect the pro-inflammatory protein, monocyte chemotactic protein-1 (MCP-1). The macrophages were also treated with LPS alone or with CDDO-EA alone. A control (no treatment) group was also included in the study. […] This suppression of MCP-1 production by the second batch CDDO-EA is similar to that observed for the first batch of CDDO-EA. (See FIG. 21).

[1] = test system: transforming growth factor-β (TGF-β)/Smad signaling; details: Suh et al., 2003, Minns et al., 2004, Mix et al.; cited from earlier work
IκB-α = details: Saha et al.; liver homogenates, HFD mice; cited from earlier work
[2] = test system: heme-oxygenase-1 and Nrf2/ARE signaling; details: Liby et al., 2005; cited from earlier work
AMPK = details: Saha et al.; cited from earlier work
GLUT4 [3] = assay: Colorimetric assay of cell surface GLUT4 in L6GLUT4myc myotubes (preliminary data); type: cell-based, rat; details: FIG. 30
Experimental: Is CDDO-EA-mediated GLUT4 translocation dependent on AMPK activation? The catalytic subunit alpha-1 (α1) of AMPK will be KD by siRNA. Cells will be treated with CDDO-EA (500 nM, 1 hour), insulin ([…] for 15 min), or insulin and CDDO-EA to determine if there is a synergistic effect on GLUT4 translocation. Also, cells will be treated with the AMPK activator, 5-aminoimidazole-4-carboxamide ribonucleoside (AICAR, 1 mM, 40 minutes), as a positive control. We will use a colorimetric assay to quantitatively measure the levels of cell surface GLUT4 in 3T3-L1 adipocytes and L6GLUT4myc myotubes^37. […] GLUT4 translocation will be detected via immunofluorescence. Subcellular protein fractionation will be conducted to detect GLUT4 in the sarcolemma for myotubes and plasma membrane for adipocytes and GLUT2 in the plasma membrane of hepatocytes via Western blotting. GLUT2 will be measured in hepatocytes because GLUT2 is the most abundant glucose transporter in hepatocytes^38. To measure glucose uptake, a non-radioactive, plate-based bioluminescent assay (Glucose Uptake-Glo, Promega) will be performed. Using Glucose Uptake-Glo, insulin induces glucose uptake in L6GLUT4my myotubes. Phosphorylation of AMPK at Thr^172 and phosphorylation of ACC at Ser^79 indicates activation of the AMPK pathway. Thus, phosphorylation of AMPK Thr^172 and ACC Ser^79 will be shown through Western blotting. […]

GLUT4 [4] = assay: GLUT4myc translocation by immunofluorescence in L6-GLUT4myc myotubes; type: cell-based, rat; details: CDDO-EA 500 nM 1 h; insulin 100 nM 15 min
Experimental: Immunofluorescence and confocal microscopy were employed to visualize the localization of c-myc epitope-tagged GLUT4 in L6-GLUT4myc myotubes treated with CDDO-EA for 1 h. L6-GLUT4myc myotubes were also treated with insulin alone for 15 min as a positive control.
To examine the properties of CDDO-EA in regulating glucose metabolism in the skeletal muscle, the present study examined whether CDDO-EA induces translocation of GLUT4 to the cell surface (FIG. 16A). Immunofluorescence and confocal microscopy were used to visualize the localization of c-myc epitope-tagged GLUT4 in L6-GLUT4myc cells.
Immunofluorescence microscopy: L6-GLUT4myc myoblasts (4×10^4 cells/ml, 0.2 ml/well) were plated onto Nunc Lab-TekII 8-chamber slides (Thermo Fisher Scientific) and differentiated for 7 days. Myotubes were pre-treated with CDDO-EA 500 nM for 1 h followed by LPS 100 ng/ml (E. coli O111: B4, Sigma Aldrich) treatment for 1 h. After treatment, myotubes were fixed, permeabilized, and stained with anti-NF-κB p65 primary antibody (cat #sc-372, 1:100, Santa Cruz Biotechnology) and a goat anti-rabbit secondary antibody conjugated with Alexa Fluor® 488 (cat #A32731, 1:500, Invitrogen) as previously described. For GLUT4myc cell membrane staining, myotubes were pre-treated with CDDO-EA 500 nM for 1 h followed by LPS 100 ng/ml (E. coli 0111: B4, Sigma Aldrich) treatment for 1 h. Insulin 100 nM (cat #19278, Sigma Aldrich) treatment was for 15 min. After CDDO-EA, LPS, and insulin treatment, myotubes were fixed without permeabilization and stained with anti-c-myc primary antibody (cat #C3956, 1:100, Sigma Aldrich) and a goat anti-rabbit secondary antibody conjugated with Alexa Fluor® 488 (cat #A32731, 1:500, Invitrogen) as previously described.

N171-82Q mice = details: cited from earlier work
[5] = Shin et al.; oral gavage 30 μmol/kg three times a week, HFD 82 days; interpretation questioned by the applicant; cited from earlier work
[6] = RAW264.7, 500 nM CDDO-EA batch 1 hour then 100 ng/ml LPS 6 hr
[7] = RAW264.7, 500 nM CDDO-EA batch alone, no LPS
[8] = 500 nM CDDO-EA batch 1 hour then 100 ng/ml LPS 6 hr
[9] = 500 nM CDDO-EA batch alone, no LPS
[10] = Table 5, 500 nM CDDO-EA batch 1 hour then 100 ng/ml LPS 6 hr
[11] = Table 5, 500 nM CDDO-EA batch alone, no LPS

Compound | MCP-1 level (ELISA), individual values (MCP-1; [6]) | MCP-1 level (ELISA), individual values (MCP-1; [7]) | MCP-1 level (ELISA), average (MCP-1; [8]) | MCP-1 level (ELISA), average (MCP-1; [9]) | MCP-1 level (ELISA), mean of four values (MCP-1; [10]) | MCP-1 level (ELISA), mean of four values (MCP-1; [11]) | modulation of TGF-β/Smad signaling [1] | induction of heme-oxygenase-1 and Nrf2/ARE signaling [2] | also measured
CCNC(=O)[C@]12CCC(C)(C)C[C@H]1C1C(=O)C=C3[C@@]4(C)C=C(C#N)C(=O)C(C)(C)[C@@H]4CC[C@@]3(C)[C@]1(C)CC2 (stereo partly drawn) [CDDO-EA #1, (4aS,6aR,6bS,8aR,12aS,14bS)-11-cyano-N-ethyl-2,2,6a,6b,9,9,12a-heptamethyl-10,14-dioxo-1,3,4,5,6,6a,6b,7,8,8a,9,10,12a, 14,14a, 14b-hexadecahydropicene-4a (2H)-carboxamide] | 30687 and 31996 and 20309 and 17055 | 717 and 655 and 740 and 870 | 31341 | 686 | 25012 | 746 | – | – | MCP-1 production (MCP-1; listed as Batch #1 CDDO-EA): 31300 pg/mL; fold difference in the decrease of MCP-1 production (MCP-1; listed as Batch #1 CDDO-EA): about 3.6 fold
COC(=O)[C@]12CCC(C)(C)C[C@H]1C1C(=O)C=C3[C@@]4(C)C=C(C#N)C(=O)C(C)(C)[C@@H]4CC[C@@]3(C)[C@]1(C)CC2 (stereo partly drawn) [CDDO-Me, methyl (4aS,6aR,6bS,8aR,12aS,14bS)-11-cyano-2,2,6a,6b,9,9,12a-heptamethyl-10,14-dioxo-1,3,4,5,6,6a,6b,7,8,8a,9,10,12a, 14,14a, 14b-hexadecahydropicene-4a (2H)-carboxylate] | – | – | – | – | – | – | ability to modulate transforming growth factor-β (TGF-β)/Smad signaling | potent inducers of heme-oxygenase-1 and Nrf2/ARE signaling | phosphorylation of IκB-α (IκB-α): increase in phosphorylation of IκB-α; AMPK signaling (AMPK): activated AMPK signaling in isolated mouse hepatocytes and C2C12 muscle cells
CCNC(=O)[C@]12CCC(C)(C)C[C@H]1C1C(=O)C=C3[C@@]4(C)C=C(C#N)C(=O)C(C)(C)[C@@H]4CC[C@@]3(C)[C@]1(C)CC2 (stereo partly drawn) [CDDO-EA #2, (4aS,6aR,6bS,8aR,12aS,14bS)-11-cyano-N-ethyl-2,2,6a,6b,9,9,12a-heptamethyl-10,14-dioxo-1,3,4,5,6,6a,6b, 7,8,8a,9,10,12a, 14,14a, 14b-hexadecahydropicene-4a (2H)-carboxamide] | 23503 and 25793 and 11890 and 14316 | 481 and 497 and 314 and 587 | 24648 | 489 | 18875 | 470 | – | – | MCP-1 production (MCP-1; listed as Batch #2 CDDO-EA): 24600 pg/mL; LPS-induced production of MCP-1 (MCP-1; RAW264.7, 500 nM 1 hour then 100 ng/ml LPS 6 hr): blocked the LPS-induced production of MCP-1; fold difference in the decrease of MCP-1 production (MCP-1; listed as Batch #2 CDDO-EA): ~4.6 fold
Insulin: positive control for GLUT4myc translocation, 100 nM for 15 min [reference compound] | – | – | – | – | – | – | – | – | GLUT4 translocation to the cell surface (colorimetry assay) (GLUT4 [3]): induce GLUT4 translocation to the cell surface; GLUT4myc translocation to the cell surface (GLUT4 [4]): induced GLUT4myc translocation into the cell membrane
CC1(C)CC[C@]2(C(=O)NCC(F)(F)F)CC[C@]3(C)[C@H](C(=O)C=C4[C@@]5(C)C=C(C#N)C(=O)C(C)(C)[C@@H]5CC[C@]43C)[C@@H]2C1 [CDDO-TFEA] | – | – | – | – | – | – | – | – | muscle strength and balance, survival (N171-82Q mice; N171-82Q mice): improved muscle strength and balance and increased survival; accumulation in the skeletal muscle (N171-82Q mice; Stack et al. (2010)): accumulated in the skeletal muscle; oxidative stress in skeletal muscle (N171-82Q mice; Stack et al. (2010)): oxidative stress in skeletal muscle was reduced
CC1(C)CC[C@]2(C(=O)n3ccnc3)CC[C@]3(C)[C@H](C(=O)C=C4[C@@]5(C)C=C(C#N)C(=O)C(C)(C)[C@@H]5CC[C@]43C)[C@@H]2C1 [CDDO-Im] | – | – | – | – | – | – | ability to modulate transforming growth factor-β (TGF-β)/Smad signaling | potent inducers of heme-oxygenase-1 and Nrf2/ARE signaling | energy expenditure (EE) [5]: increases energy expenditure (EE) in mice fed a HFD
